The source of these data is patent US9062071B2, “Substituted piperidines as HDM2 inhibitors” (Merck Sharp & Dohme Corp, priority 2011, dated 2015).

Each structure is given as a SMILES string.

HDM2 protein, sequence (Q00987 whole entry): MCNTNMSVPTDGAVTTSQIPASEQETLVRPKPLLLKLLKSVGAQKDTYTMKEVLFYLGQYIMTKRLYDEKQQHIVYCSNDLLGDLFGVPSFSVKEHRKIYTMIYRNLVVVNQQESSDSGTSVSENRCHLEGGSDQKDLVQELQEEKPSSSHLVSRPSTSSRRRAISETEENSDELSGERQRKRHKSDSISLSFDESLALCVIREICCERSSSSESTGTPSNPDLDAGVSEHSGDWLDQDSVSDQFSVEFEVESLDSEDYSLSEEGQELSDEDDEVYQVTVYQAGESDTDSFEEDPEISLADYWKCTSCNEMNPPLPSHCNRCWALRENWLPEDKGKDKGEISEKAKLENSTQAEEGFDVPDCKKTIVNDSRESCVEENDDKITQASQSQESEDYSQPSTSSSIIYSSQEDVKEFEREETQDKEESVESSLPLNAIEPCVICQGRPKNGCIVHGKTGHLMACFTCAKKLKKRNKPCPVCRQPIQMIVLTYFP

For the experiment, the target named is HDM2 protein (Homo sapiens, UniProt Q00987). Description: fluorescence polarization screening assay (FP IC50). The format is binding. Particulars: class symbols. As for the experimental part:
The compounds were evaluated to determine activity at the HDM2 protein by known methods such as the fluorescence polarization screening assay that measures the inhibitory concentration that achieves 50% of maximal activity (FP IC50) and the dissociation constant for inhibitor binding (FP Ki). [Zhang et al., J. Analytical Biochemistry 331: 138-146 (2004)].
For orientation: IC50 means the concentration that gives 50% inhibition. Higher therefore signals weaker potency. In turn, `O=C(c1ncccc1C(F)(F)F)N1CCC[C@@](Oc2csc(C(F)(F)F)c2)(C(=O)N2CCc3cc(Cl)ccc3C2)[C@H]1CCN1CCN(CC2CC2)CC1` [Compound A116, 6-chloro-2-{[(2R,3S)-2-{2-[4-(cyclopropylmethyl)piperazin-1-yl]ethyl}-1-{[3-(trifluoromethyl)pyridin-2-yl]carbonyl}-3-{[5-(trifluoromethyl)thiophen-3-yl]oxy}piperidin-3-yl]carbonyl}-1,2,3,4-tetrahydroisoquinoline] yielded an IC50 of 1 to 100 nM. For `COCCN(C)CC[C@H]1N(C(=O)c2ncccc2C(F)(F)F)CCC[C@@]1(Oc1csc(C(F)(F)F)c1)C(=O)N1CCc2cc(Cl)ccc2C1` [Compound A117, 2-[(2R,3S)-3-[(6-chloro-3,4-dihydroisoquinolin-2(1H)-yl)carbonyl]-1-{[3-(trifluoromethyl)pyridin-2-yl]carbonyl}-3-{[5-(trifluoromethyl)thiophen-3-yl]oxy}piperidin-2-yl]-N-(2-methoxyethyl)-N-methylethanamine] the value was 1 to 100 nM.

`COCCN1CCN(CC[C@H]2N(C(=O)c3ncccc3C(F)(F)F)CCC[C@@]2(Oc2csc(C(F)(F)F)c2)C(=O)N2CCc3cc(Cl)ccc3C2)CC1` [Compound A118, 6-chloro-2-{[(2R,3S)-2-{2-[4-(2-methoxyethyl)piperazin-1-yl]ethyl}-1-{[3-(trifluoromethyl)pyridin-2-yl]carbonyl}-3-{[5-(trifluoromethyl)thiophen-3-yl]oxy}piperidin-3-yl]carbonyl}-1,2,3,4-tetrahydroisoquinoline] gave an IC50 of 1 to 100 nM. Then `CC(C)(C(=O)O)C1CCN(CC[C@H]2N(C(=O)c3ncccc3C(F)(F)F)CCC[C@@]2(Oc2csc(C(F)(F)F)c2)C(=O)N2CCc3cc(Cl)ccc3C2)CC1` [Compound A119, 2-(1-{2-[(2R,3S)-3-[(6-chloro-3,4-dihydroisoquinolin-2(1H)-yl)carbonyl]-1-{[3-(trifluoromethyl)pyridin-2-yl]carbonyl}-3-{[5-(trifluoromethyl)thiophen-3-yl]oxy}piperidin-2-yl]ethyl}piperidin-4-yl)-2-methylpropanoic acid], with 1 to 100 nM; and `CCC[C@H]1N(C(=O)c2cnccc2C(F)(F)F)CCC[C@@]1(Oc1csc(C(F)(F)F)c1)C(=O)N1Cc2ccccc2C[C@H]1CO` [Compound A120, [(3S)-2-{[(2R,3S)-2-propyl-1-{[4-(trifluoromethyl)pyridin-3-yl]carbonyl}-3-{[5-(trifluoromethyl)thiophen-3-yl]oxy}piperidin-3-yl]carbonyl}-1,2,3,4-tetrahydroisoquinolin-3-yl]methanol], with 101 to 20000 nM; and `CCC[C@H]1N(C(=O)c2cnccc2C(F)(F)F)CCC[C@@]1(Oc1csc(C(F)(F)F)c1)C(=O)N1CCc2cccc(O)c2C1` [Compound A121, 2-{[(2R,3S)-2-propyl-1-{[4-(trifluoromethyl)pyridin-3-yl]carbonyl}-3-{[5-(trifluoromethyl)thiophen-3-yl]oxy}piperidin-3-yl]carbonyl}-1,2,3,4-tetrahydroisoquinolin-8-ol], with 101 to 20000 nM. In turn, `CCC[C@H]1N(C(=O)c2cnccc2C(F)(F)F)CCC[C@@]1(Oc1csc(C(F)(F)F)c1)C(=O)N1CCc2ccccc2C1CC(=O)O` (stereo partly drawn) [Compound A122, (2-{[(2R,3S)-2-propyl-1-{[4-(trifluoromethyl)pyridin-3-yl]carbonyl}-3-{[5-(trifluoromethyl)thiophen-3-yl]oxy}piperidin-3-yl]carbonyl}-1,2,3,4-tetrahydroisoquinolin-1-yl)acetic acid] displayed an IC50 of 1 to 100 nM.

Consider `CCC[C@H]1N(C(=O)c2ncccc2C(F)(F)F)CCC[C@@]1(Oc1csc(C(F)(F)F)c1)C(=O)N1Cc2ccc(F)cc2C[C@@H]1C(=O)O` [Compound A123, (3R)-6-fluoro-2-{[(2R,3S)-2-propyl-1-{[3-(trifluoromethyl)pyridin-2-yl]carbonyl}-3-{[5-(trifluoromethyl)thiophen-3-yl]oxy}piperidin-3-yl]carbonyl}-1,2,3,4-tetrahydroisoquinoline-3-carboxylic acid], for which the concentration for half-maximal inhibition (IC50) was in the range of 1 to 100 nM.

With `CCC[C@H]1N(C(=O)c2ncccc2C(F)(F)F)CCC[C@@]1(Oc1csc(C(F)(F)F)c1)C(=O)N1Cc2ccc(F)cc2C[C@@H]1CCC(=O)O` [Compound A124, 3-[(3S)-6-fluoro-2-{[(2R,3S)-2-propyl-1-{[3-(trifluoromethyl)pyridin-2-yl]carbonyl}-3-{[5-(trifluoromethyl)thiophen-3-yl]oxy}piperidin-3-yl]carbonyl}-1,2,3,4-tetrahydroisoquinolin-3-yl]propanoic acid], the IC50 fell in the range of 1 to 100 nM. For `CCC[C@H]1N(C(=O)c2ncccc2C(F)(F)F)CCC[C@@]1(Oc1csc(C(F)(F)F)c1)C(=O)N1Cc2ccc(F)cc2C[C@H]1C(=O)O` [Compound A125, (3S)-6-fluoro-2-{[(2R,3S)-2-propyl-1-{[3-(trifluoromethyl)pyridin-2-yl]carbonyl}-3-{[5-(trifluoromethyl)thiophen-3-yl]oxy}piperidin-3-yl]carbonyl}-1,2,3,4-tetrahydroisoquinoline-3-carboxylic acid] the value was 1 to 100 nM. Molecule `CCC[C@H]1N(C(=O)c2ncccc2C(F)(F)F)CCC[C@@]1(Oc1csc(C(F)(F)F)c1)C(=O)N1Cc2ccc(F)cc2C[C@H]1CCC(=O)O` [Compound A127, 3-[(3R)-6-fluoro-2-{[(2R,3S)-2-propyl-1-{[3-(trifluoromethyl)pyridin-2-yl]carbonyl}-3-{[5-(trifluoromethyl)thiophen-3-yl]oxy}piperidin-3-yl]carbonyl}-1,2,3,4-tetrahydroisoquinolin-3-yl]propanoic acid] showed a half-maximal inhibitory concentration (IC50) of 1 to 100 nM.

For `CCC[C@H]1N(C(=O)c2ncccc2C(F)(F)F)CCC[C@@]1(Oc1csc(C(F)(F)F)c1)C(=O)N1Cc2cc(F)ccc2C[C@H]1C(=O)O` [Compound A128, (3S)-7-fluoro-2-{[(2R,3S)-2-propyl-1-{[3-(trifluoromethyl)pyridin-2-yl]carbonyl}-3-{[5-(trifluoromethyl)thiophen-3-yl]oxy}piperidin-3-yl]carbonyl}-1,2,3,4-tetrahydroisoquinoline-3-carboxylic acid], the IC50 was 1 to 100 nM. For `CCC[C@H]1N(C(=O)c2ncccc2C(F)(F)F)CCC[C@@]1(Oc1csc(C(F)(F)F)c1)C(=O)N1Cc2ccc(Cl)cc2C[C@@H]1C(=O)O` [Compound A129, (3R)-6-chloro-2-{[(2R,3S)-2-propyl-1-{[3-(trifluoromethyl)pyridin-2-yl]carbonyl}-3-{[5-(trifluoromethyl)thiophen-3-yl]oxy}piperidin-3-yl]carbonyl}-1,2,3,4-tetrahydroisoquinoline-3-carboxylic acid] the value was 1 to 100 nM; for `CCC[C@H]1N(C(=O)c2ncccc2C(F)(F)F)CCC[C@@]1(Oc1csc(C(F)(F)F)c1)C(=O)N1Cc2ccc(Cl)cc2C[C@@H]1CCC(=O)O` [Compound A130, 3-[(3S)-6-chloro-2-{[(2R,3S)-2-propyl-1-{[3-(trifluoromethyl)pyridin-2-yl]carbonyl}-3-{[5-(trifluoromethyl)thiophen-3-yl]oxy}piperidin-3-yl]carbonyl}-1,2,3,4-tetrahydroisoquinolin-3-yl]propanoic acid], 1 to 100 nM; for `CCC[C@H]1N(C(=O)c2ncccc2C(F)(F)F)CCC[C@@]1(Oc1csc(C(F)(F)F)c1)C(=O)N1Cc2ccc(F)cc2C[C@@H]1CCCCC(=O)O` [Compound A131, 5-[(3S)-6-fluoro-2-{[(2R,3S)-2-propyl-1-{[3-(trifluoromethyl)pyridin-2-yl]carbonyl}-3-{[5-(trifluoromethyl)thiophen-3-yl]oxy}piperidin-3-yl]carbonyl}-1,2,3,4-tetrahydroisoquinolin-3-yl]pentanoic acid], 1 to 100 nM. Then `CCC[C@H]1N(C(=O)c2ncccc2C(F)(F)F)CCC[C@@]1(Oc1csc(C(F)(F)F)c1)C(=O)N1Cc2cc(F)ccc2C[C@@H]1CCC(=O)O` [Compound A132, 3-[(3S)-7-fluoro-2-{[(2R,3S)-2-propyl-1-{[3-(trifluoromethyl)pyridin-2-yl]carbonyl}-3-{[5-(trifluoromethyl)thiophen-3-yl]oxy}piperidin-3-yl]carbonyl}-1,2,3,4-tetrahydroisoquinolin-3-yl]propanoic acid], with 1 to 100 nM; and `CCC[C@H]1N(C(=O)c2ncccc2C(F)(F)F)CCC[C@@]1(Oc1csc(C(F)(F)F)c1)C(=O)N1Cc2ccc(Cl)cc2C[C@@H]1C(C)CC(=O)O` (stereo partly drawn) [Compound A133, 3-[(3R)-6-chloro-2-{[(2R,3S)-2-propyl-1-{[3-(trifluoromethyl)pyridin-2-yl]carbonyl}-3-{[5-(trifluoromethyl)thiophen-3-yl]oxy}piperidin-3-yl]carbonyl}-1,2,3,4-tetrahydroisoquinolin-3-yl]butanoic acid], with 1 to 100 nM. For `CCC[C@H]1N(C(=O)c2ncccc2C(F)(F)F)CCC[C@@]1(Oc1csc(C(F)(F)F)c1)C(=O)N1Cc2ccc(Br)cc2C[C@@H]1C(=O)O` [Compound A134, (3R)-6-bromo-2-{[(2R,3S)-2-propyl-1-{[3-(trifluoromethyl)pyridin-2-yl]carbonyl}-3-{[5-(trifluoromethyl)thiophen-3-yl]oxy}piperidin-3-yl]carbonyl}-1,2,3,4-tetrahydroisoquinoline-3-carboxylic acid] the value was 1 to 100 nM.

For `CCC[C@H]1N(C(=O)c2ncccc2C(F)(F)F)CCC[C@@]1(Oc1csc(C(F)(F)F)c1)C(=O)N1Cc2ccc(Cl)cc2C[C@@H]1CCC(=O)N(C)C` [Compound A135, 3-[(3S)-6-chloro-2-{[(2R,3S)-2-propyl-1-{[3-(trifluoromethyl)pyridin-2-yl]carbonyl}-3-{[5-(trifluoromethyl)thiophen-3-yl]oxy}piperidin-3-yl]carbonyl}-1,2,3,4-tetrahydroisoquinolin-3-yl]-N,N-dimethylpropanamide], the IC50 fell in the range of 1 to 100 nM.
